Experimental data taken from US20060069132A1, “Azolecarboxamide herbicides” (priority 2004, published 2006).

Tests used:
[1] = system: giant foxtail; test: Test C pre-/postemergence herbicide test; type: in vivo, Setaria faberi; settings: for Foxtail, Giant plant response rating: 500 g ai/ha
Outline: (§1)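 Pre/post spray; non-phytotoxic solvent + surfactant. Post-timing 1–4 leaves, 2–18 cm. Read-out: visual % control vs untreated, day 12–14, greenhouse.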

[2] = system: ducksalad; test: Test C flooded paddy test; type: in vivo, Heteranthera limosa; settings: for Plant response rating, Ducksalad: 500 g ai/ha, visual rating after 12 to 14 days
[3] = system: barnyardgrass; test: Test A pre-/postemergence herbicide test; type: in vivo, Echinochloa crus-galli
Outline: (§2)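 Greenhouse injury scoring (0–100, complete control = 100) at approximately ten days follows simultaneous pre- and postemergence application. Soil received a directed spray after seeding; seedlings of 2–10 cm at the one- to two-leaf stage were sprayed to runoff.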

[4] = system: cocklebur; test: Test C pre-/postemergence herbicide test; type: in vivo, Xanthium strumarium; settings: for Cocklebur plant response rating: 500 g ai/ha
Outline: as §1

[5] = system: redroot pigweed; test: Test A pre-/postemergence herbicide test; type: in vivo, Amaranthus retroflexus
Outline: as §2

[6] = system: velvetleaf; test: Test A pre-/postemergence herbicide test; type: in vivo, Abutilon theophrasti
Outline: as §2

[7] = system: morningglory; test: Test C pre-/postemergence herbicide test; type: in vivo, Ipomoea coccinea; design: key to Plant response rating, Morningglory: 0 = no effect, 100 = complete control; settings: for Morningglory plant response rating: 500 g ai/ha
Outline: as §1

[8] = system: giant foxtail; test: Test A pre-/postemergence herbicide test; type: in vivo, Setaria faberi
Outline: as §2

[9] = system: eastern black nightshade; test: Test C pre-/postemergence herbicide test; type: in vivo, Solanum ptycanthum; settings: for Plant response rating (0 = no effect, 100 = complete control), Nightshade: 62 g ai/ha; for Plant response rating (0 = no effect, 100 = complete control), Nightshade / Plant response rating, Nightshade: preemergence; for Plant response rating, Nightshade: 125 g ai/ha, scale 0 (no effect) to 100 (complete control), visual, 12 to 14 days
Outline: as §1

[10] = system: yellow nutsedge; test: Test C pre-/postemergence herbicide test; type: in vivo, Cyperus esculentus; settings: for Nutsedge, Yellow plant response rating: 500 g ai/ha
Outline: as §1

[11] = system: Surinam grass; test: Test C pre-/postemergence herbicide test; type: in vivo, Urochloa decumbens; settings: for Surinam Grass plant response rating: 500 g ai/ha
Outline: as §1

[12] = system: johnsongrass; test: Test C pre-/postemergence herbicide test; type: in vivo, Sorghum halepense; settings: for Johnsongrass plant response rating: 500 g ai/ha
Outline: as §1

[13] = system: barnyardgrass; test: Test C flooded paddy test; type: in vivo, Echinochloa crus-galli; settings: for Plant response rating, Barnyardgrass: 500 g ai/ha, visual rating after 12 to 14 days
Outline: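 Postemergence sprays applied to plants 2 to 18 cm tall (1- to 4-leaf stage); paddy species grown to 2-leaf stage under flooding. After 12 to 14 days in greenhouse, visual rating versus untreated controls on 0–100 scale (0 no effect, 100 complete control).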

[14] = 125 g ai/ha, scale 0 (no effect) to 100 (complete control), visual, 12 to 14 days, preemergence
[15] = 250 g ai/ha, scale 0 to 100 (0 no effect, 100 complete control), visual, 12 to 14 days, preemergence
[16] = Postemergence, 250 g ai/ha, scale 0 to 100, 0 no effect, 100 complete control
[17] = postemergence, 125 g ai/ha, scale 0 to 100
[18] = postemergence, 62 g ai/ha, scale 0 to 100
[19] = 62 g ai/ha, scale 0 to 100 (0 no effect, 100 complete control)
[20] = 125 g ai/ha, scale 0 to 100 (0 no effect, 100 complete control)
[21] = 250 g ai/ha, scale of 0 to 100, 0 is no effect, 100 is complete control
[22] = scale 0 to 100 (0 no effect, 100 complete control)
[23] = Postemergence, 500 g ai/ha, 0 to 100 scale, 0 no effect, 100 complete control
[24] = Postemergence, 2000 g ai/ha, 0 to 100 scale, 0 no effect, 100 complete control
[25] = Preemergence, 500 g ai/ha, visual rating, 0 to 100 scale (0 no effect, 100 complete control)
[26] = Preemergence, 2000 g ai/ha, visual rating, 0 to 100 scale (0 no effect, 100 complete control)
[27] = preemergence, 500 g ai/ha, visual injury, 0 to 100 scale (0 no effect, 100 complete control)
[28] = 125 g ai/ha, scale of 0 to 100, 0 is no effect, 100 is complete control
[29] = Preemergence, scale 0 to 100, 0 no effect, 100 complete control

CCn1nc(C(C)(C)C)cc1C(=O)Nc1cccc(C#N)c1 [Compound 139]
Plant response rating (0 = no effect, 100 = complete control), Foxtail, Giant ([1]; 62 g ai/ha, preemergence): 40
Plant response rating, Foxtail, Giant [1, 14]: 80
Plant response rating, Foxtail, Giant [1, 15]: 95
Plant response rating, Foxtail, Giant [1, 16]: 10
Plant response rating, Foxtail, Giant [1, 17]: 0
Plant response rating, Foxtail, Giant [1, 18]: 0
Ducksalad plant response rating [2, 19]: 0
Ducksalad plant response rating [2, 20]: 70
Ducksalad plant response rating [2, 21]: 85
Plant response rating, Ducksalad [2, 22]: 90
Barnyardgrass plant response rating [3, 23]: 35
Plant response rating, Barnyardgrass [3, 24]: 60
Barnyardgrass plant response rating [3, 25]: 40
Barnyardgrass plant response rating [3, 26]: 60
Plant response rating (0 = no effect, 100 = complete control), Cocklebur ([4]; 62 g ai/ha, preemergence): 0
Plant response rating, Cocklebur [4, 14]: 0
Plant response rating, Cocklebur [4, 15]: 0
Plant response rating, Cocklebur [4, 16]: 10
Plant response rating, Cocklebur [4, 17]: 10
Plant response rating, Cocklebur ([4]; postemergence, 31 g ai/ha, scale 0 to 100): 5
Plant response rating, Cocklebur [4, 18]: 5
Pigweed plant response rating [5, 23]: 75
Plant response rating, Pigweed [5, 24]: 100
Pigweed plant response rating [5, 26]: 100
Pigweed plant response rating [5, 27]: 100
Velvetleaf plant response rating [6, 23]: 25
Plant response rating, Velvetleaf [6, 24]: 40
Velvetleaf plant response rating [6, 26]: 80
Velvetleaf plant response rating [6, 27]: 50
Plant response rating (0 = no effect, 100 = complete control), Morningglory ([7]; 62 g ai/ha, preemergence): 0
Plant response rating, Morningglory [7, 14]: 10
Plant response rating, Morningglory [7, 16]: 60
Plant response rating, Morningglory [7, 17]: 50
Plant response rating, Morningglory [7, 18]: 0
Foxtail, Giant plant response rating [8, 23]: 20
Plant response rating, Foxtail, Giant [8, 24]: 40
Foxtail, Giant plant response rating [8, 25]: 60
Foxtail, Giant plant response rating [8, 26]: 75
Plant response rating (0 = no effect, 100 = complete control), Nightshade [9]: 95
Plant response rating, Nightshade [9]: 100
Plant response rating, Nutsedge, Yellow ([10]; 31 g ai/ha, scale 0 to 100, last section of Table C, preemergence): 0
Plant response rating (0 = no effect, 100 = complete control), Nutsedge, Yellow ([10]; 62 g ai/ha, preemergence): 0
Plant response rating, Nutsedge, Yellow [10, 14]: 0
Plant response rating, Nutsedge, Yellow [10, 16]: 0
Plant response rating, Nutsedge, Yellow [10, 17]: 0
Plant response rating, Nutsedge, Yellow [10, 18]: 0
Plant response rating (0 = no effect, 100 = complete control), Surinam Grass ([11]; 62 g ai/ha, preemergence): 0
Plant response rating, Surinam Grass [11, 14]: 20
Plant response rating, Surinam Grass [11, 16]: 0
Plant response rating, Surinam Grass [11, 17]: 0
Plant response rating, Surinam Grass [11, 18]: 0
Plant response rating (0 = no effect, 100 = complete control), Johnsongrass ([12]; 62 g ai/ha, preemergence): 20
Plant response rating, Johnsongrass [12, 14]: 30
Plant response rating, Johnsongrass [12, 16]: 0
Plant response rating, Johnsongrass [12, 17]: 0
Plant response rating, Johnsongrass [12, 18]: 0
Barnyardgrass plant response rating [13, 19]: 15
Barnyardgrass plant response rating [13, 28]: 40
Barnyardgrass plant response rating [13, 21]: 55
Plant response rating, Barnyardgrass [13, 22]: 65

CCn1nc(C(C)(C)C)cc1C(=O)Nc1cccc(C(=O)NC2CC2)n1 [Compound 146]
Plant response rating (0 = no effect, 100 = complete control), Foxtail, Giant ([1]; 62 g ai/ha, preemergence): 0
Plant response rating, Foxtail, Giant [1, 14]: 10
Plant response rating, Foxtail, Giant [1, 15]: 60
Foxtail, Giant plant response rating ([1]; Postemergence, scale 0 to 100): 10
Plant response rating, Foxtail, Giant [1, 16]: 0
Foxtail, Giant plant response rating [1, 29]: 80
Plant response rating, Foxtail, Giant [1, 17]: 0
Plant response rating, Foxtail, Giant [1, 18]: 0
Ducksalad plant response rating [2, 19]: 0
Ducksalad plant response rating [2, 20]: 0
Ducksalad plant response rating [2, 21]: 20
Plant response rating, Ducksalad [2, 22]: 20
Barnyardgrass plant response rating [3, 23]: 50
Plant response rating, Barnyardgrass [3, 24]: 75
Barnyardgrass plant response rating [3, 25]: 70
Barnyardgrass plant response rating [3, 26]: 80
Plant response rating (0 = no effect, 100 = complete control), Cocklebur ([4]; 62 g ai/ha, preemergence): 0
Plant response rating, Cocklebur [4, 14]: 0
Plant response rating, Cocklebur [4, 15]: 0
Cocklebur plant response rating ([4]; Postemergence, scale 0 to 100): 20
Plant response rating, Cocklebur [4, 16]: 10
Cocklebur plant response rating [4, 29]: 0
Plant response rating, Cocklebur [4, 17]: 5
Plant response rating, Cocklebur [4, 18]: 5
Pigweed plant response rating [5, 23]: 85
Plant response rating, Pigweed [5, 24]: 100
Pigweed plant response rating [5, 26]: 95
Pigweed plant response rating [5, 27]: 85
Velvetleaf plant response rating [6, 23]: 20
Plant response rating, Velvetleaf [6, 24]: 35
Velvetleaf plant response rating [6, 26]: 25
Velvetleaf plant response rating [6, 27]: 20
Plant response rating (0 = no effect, 100 = complete control), Morningglory ([7]; 62 g ai/ha, preemergence): 0
Plant response rating, Morningglory [7, 14]: 5
Morningglory plant response rating ([7]; Postemergence, scale 0 to 100): 0
Plant response rating, Morningglory [7, 16]: 0
Morningglory plant response rating [7, 29]: 50
Plant response rating, Morningglory [7, 17]: 0
Plant response rating, Morningglory [7, 18]: 0
Foxtail, Giant plant response rating [8, 23]: 15
Plant response rating, Foxtail, Giant [8, 24]: 40
Foxtail, Giant plant response rating [8, 25]: 45
Foxtail, Giant plant response rating [8, 26]: 45
Plant response rating (0 = no effect, 100 = complete control), Nightshade [9]: 50
Plant response rating, Nightshade [9]: 60
Nightshade plant response rating ([9]; Preemergence, 500 g ai/ha, scale 0 to 100, 0 no effect, 100 complete control): 100
Plant response rating (0 = no effect, 100 = complete control), Nutsedge, Yellow ([10]; 62 g ai/ha, preemergence): 0
Plant response rating, Nutsedge, Yellow [10, 14]: 0
Nutsedge, Yellow plant response rating ([10]; Postemergence, scale 0 to 100): 0
Plant response rating, Nutsedge, Yellow [10, 16]: 0
Nutsedge, Yellow plant response rating [10, 29]: 0
Plant response rating, Nutsedge, Yellow [10, 17]: 0
Plant response rating, Nutsedge, Yellow [10, 18]: 0
Plant response rating (0 = no effect, 100 = complete control), Surinam Grass ([11]; 62 g ai/ha, preemergence): 0
Plant response rating, Surinam Grass [11, 14]: 0
Surinam Grass plant response rating ([11]; Postemergence, scale 0 to 100): 20
Plant response rating, Surinam Grass [11, 16]: 0
Surinam Grass plant response rating [11, 29]: 50
Plant response rating, Surinam Grass [11, 17]: 0
Plant response rating, Surinam Grass [11, 18]: 0
Plant response rating, Johnsongrass [12, 14]: 30
Johnsongrass plant response rating ([12]; Postemergence, scale 0 to 100): 0
Plant response rating, Johnsongrass [12, 16]: 0
Johnsongrass plant response rating [12, 29]: 70
Plant response rating, Johnsongrass [12, 17]: 0
Plant response rating, Johnsongrass [12, 18]: 0
Barnyardgrass plant response rating [13, 19]: 0
Barnyardgrass plant response rating [13, 28]: 0
Barnyardgrass plant response rating [13, 21]: 0
Plant response rating, Barnyardgrass [13, 22]: 20
